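GI50 marks 50% less growth. TGI: total growth inhibition.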
How the values were obtained:
Experiment in all cases: growth of human tumour cells (NCI), 384-well format
[1] = tested on: LOX IMVI melanoma
[2] = tested on: PC-3 prostate
[3] = tested on: SK-OV-3 ovarian
[4] = tested on: CAKI-1 renal
[5] = tested on: ACHN renal
[6] = tested on: HL-60(TB) leukemia
[7] = tested on: SNB-19 CNS
[8] = tested on: M14 melanoma
[9] = tested on: MDA-MB-435 melanoma
[10] = tested on: SN12C renal
[11] = tested on: RXF 393 renal
[12] = tested on: MALME-3M melanoma
[13] = tested on: TK-10 renal
[14] = tested on: HCT-15 colon
[15] = tested on: NCI-H226 lung
[16] = tested on: UACC-257 melanoma
[17] = tested on: HCT-116 colon
[18] = tested on: NCI-H322M lung
[19] = tested on: SW-620 colon
[20] = tested on: SNB-75 CNS
[21] = tested on: SF-268 CNS
[22] = tested on: IGROV1 ovarian
[23] = tested on: OVCAR-3 ovarian
[24] = tested on: NCI-H460 NSCLC
[25] = tested on: HOP-92 NSCLC
[26] = tested on: SF-539 CNS
[27] = tested on: UO-31 renal
[28] = tested on: U251 glioblastoma
[29] = tested on: HT29 colon
[30] = tested on: NCI-H23 lung
[31] = tested on: OVCAR-4 ovarian
[32] = tested on: SK-MEL-28 melanoma
[33] = tested on: T-47D breast
[34] = tested on: HS 578T breast
[35] = tested on: OVCAR-5 ovarian
[36] = tested on: NCI-H522 lung
[37] = tested on: BT-549 breast
[38] = tested on: MDA-MB-231 breast
[39] = tested on: SK-MEL-5 melanoma
[40] = tested on: MCF7 breast
[41] = tested on: 786-0 renal
[42] = tested on: CCRF-CEM leukemia
[43] = tested on: HOP-62 NSCLC
[44] = tested on: A549 NSCLC
[45] = tested on: EKVX NSCLC
[46] = tested on: HCC-2998 colon
[47] = tested on: SR leukemia
[48] = tested on: MDA-MB-468 breast
[49] = tested on: DU-145 prostate
[50] = tested on: A498 renal
[51] = tested on: SF-295 CNS
[52] = tested on: KM12 colon

SMILES: O=C(Nc1cn[nH]c1-c1nc2ccc(CN3CCOCC3)cc2[nH]1)NC1CC1
- GI50 [1]: 248 nM
- TGI [1]: 1120 nM
- GI50 [2]: 299 nM
- TGI [2]: 13900 nM
- GI50 [3]: 259 nM
- TGI [3]: 2280 nM
- GI50 [4]: 71.8 nM
- TGI [4]: > 100000 nM
- GI50 [5]: 413 nM
- TGI [5]: > 100000 nM
- GI50 [6]: 13 nM
- TGI [6]: 28.1 nM
- GI50 [7]: 256 nM
- TGI [7]: 1730 nM
- GI50 [8]: 364 nM
- TGI [8]: 2210 nM
- GI50 [9]: 1470 nM
- TGI [9]: 3370 nM
- GI50 [10]: 1030 nM
- TGI [10]: 2420 nM
- GI50 [11]: 22.3 nM
- TGI [11]: 61.2 nM
- GI50 [12]: 1420 nM
- TGI [12]: 3080 nM
- GI50 [13]: 210 nM
- TGI [13]: 706 nM
- GI50 [14]: 1540 nM
- TGI [14]: 11600 nM
- GI50 [15]: 85.8 nM
- TGI [15]: 273 nM
- GI50 [16]: 2090 nM
- TGI [16]: 4190 nM
- GI50 [17]: 71 nM
- TGI [17]: > 100000 nM
- GI50 [18]: 1290 nM
- TGI [18]: 3480 nM
- GI50 [19]: 36.3 nM
- TGI [19]: > 100000 nM
- GI50 [20]: 38.1 nM
- TGI [20]: 113 nM
- GI50 [21]: 103 nM
- TGI [21]: 436 nM
- GI50 [22]: 633 nM
- TGI [22]: > 100000 nM
- GI50 [23]: 156 nM
- TGI [23]: 382 nM
- GI50 [24]: 48.7 nM
- TGI [24]: 1590 nM
- GI50 [25]: 172 nM
- TGI [25]: 10800 nM
- GI50 [26]: 168 nM
- TGI [26]: 453 nM
- GI50 [27]: 111 nM
- TGI [27]: 1210 nM
- GI50 [28]: 228 nM
- TGI [28]: 1300 nM
- GI50 [29]: 75.3 nM
- TGI [29]: > 100000 nM
- GI50 [30]: 88.2 nM
- TGI [30]: 2030 nM
- GI50 [31]: 1120 nM
- TGI [31]: 5390 nM
- GI50 [32]: 1350 nM
- TGI [32]: 2910 nM
- GI50 [33]: 2200 nM
- TGI [33]: 6040 nM
- GI50 [34]: 33.6 nM
- TGI [34]: 73.5 nM
- GI50 [35]: 1810 nM
- TGI [35]: > 100000 nM
- GI50 [36]: 237 nM
- TGI [36]: 835 nM
- GI50 [37]: 58.7 nM
- TGI [37]: 386 nM
- GI50 [38]: 322 nM
- TGI [38]: 2540 nM
- GI50 [39]: 1260 nM
- TGI [39]: 2670 nM
- GI50 [40]: 345 nM
- TGI [40]: 7390 nM
- GI50 [41]: 261 nM
- TGI [41]: 10200 nM
- TGI [42]: 28 nM
- GI50 [43]: 184 nM
- TGI [43]: 1390 nM
- GI50 [44]: 800 nM
- TGI [44]: > 100000 nM
- GI50 [45]: 196 nM
- TGI [45]: 4490 nM
- GI50 [46]: 1360 nM
- TGI [46]: 2810 nM
- TGI [47]: 18.7 nM
- GI50 [48]: 16.9 nM
- TGI [48]: 36.7 nM
- GI50 [49]: 651 nM
- TGI [49]: 70400 nM
- GI50 [50]: 289 nM
- TGI [50]: 6650 nM
- GI50 [51]: 187 nM
- TGI [51]: 1210 nM
- GI50 [52]: 1040 nM
- TGI [52]: 3490 nM
